Results: PubChem BioAssay AID330 (DTP/NCI, 2004)
Several values for one entry are separate records, joined by “and”; a condition that tells them apart may be missing. Equal entries are not always repeated. Inconclusive results and toxic doses are left out.

Tested on: P388 leukemia ip, CD2F1 mice, survival T/C
Assay: NCI In Vivo Anticancer Drug Screen. Data for tumor model P388 Leukemia (intraperitoneal) in CD2F1 (CDF1) mice
Conditions: endpoint: median survival time, higher = longer survival
Method in brief: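 Mice carrying the transplanted tumor received test compound or vehicle. Survival was recorded in each group, and the value is the treated-group measurement divided by that of the vehicle-treated control group.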

CCOC(=O)/C(C#N)=C\c1c(OC(C)=O)cn2c(C)cccc12
T/C (dose: 100.0 mg/kg/injection, schedule: Q01DX001 (ip), vehicle: saline with Tween-80): 104 % of control | T/C (dose: 200.0 mg/kg/injection, schedule: Q01DX001 (ip), vehicle: saline with Tween-80): 98 % of control | T/C (dose: 400.0 mg/kg/injection, schedule: Q01DX001 (ip), vehicle: saline with Tween-80): 98 % of control

CC(N)CN1C=NC(C)C1 (stereo unspecified)
T/C (dose: 50.0 mg/kg/injection, schedule: Q01DX009 (ip), vehicle: saline): 97 % of control | T/C (dose: 100.0 mg/kg/injection, schedule: Q01DX009 (ip), vehicle: saline): 103 % of control | T/C (dose: 200.0 mg/kg/injection, schedule: Q01DX009 (ip), vehicle: saline): 94 % of control

CC(C)CCCCCCCCCCCCC(=O)NCC(=O)NC1C(O)C(O)C(Nc2ncnc3nc[nH]c23)OC1C(O)CO (stereo unspecified)
T/C (dose: 0.06 mg/kg/injection, schedule: Q01DX009 (ip), vehicle: Klucel (hydroxypropylcellulose) (HPC)): 100 % of control | T/C (dose: 0.13 mg/kg/injection, schedule: Q01DX009 (ip), vehicle: Klucel (hydroxypropylcellulose) (HPC)): 100 % of control | T/C (dose: 0.25 mg/kg/injection, schedule: Q01DX009 (ip), vehicle: Klucel (hydroxypropylcellulose) (HPC)): 100 % of control | T/C (dose: 0.25 mg/kg/injection, schedule: Q01DX009 (ip), vehicle: distilled water + alcohol): 154 % of control | T/C (dose: 0.25 mg/kg/injection, schedule: Q01DX009 (ip), vehicle: saline with Tween-80): 158 % of control | T/C (dose: 0.25 mg/kg/injection, schedule: Q03HX008 (ip), vehicle: Klucel (hydroxypropylcellulose) (HPC)): 100 % of control | T/C (dose: 0.25 mg/kg/injection, schedule: Q03HX016 (ip), vehicle: Klucel (hydroxypropylcellulose) (HPC)): 100 % of control | T/C (dose: 0.25 mg/kg/injection, schedule: Q03HX024 (ip), vehicle: Klucel (hydroxypropylcellulose) (HPC)): 95 % of control | T/C (dose: 0.5 mg/kg/injection, schedule: Q01DX009 (ip), vehicle: Klucel (hydroxypropylcellulose) (HPC)): 100 % of control | T/C (dose: 0.5 mg/kg/injection, schedule: Q01DX009 (ip), vehicle: distilled water + Tween-80): 154 % of control | T/C (dose: 0.5 mg/kg/injection, schedule: Q01DX009 (ip), vehicle: saline with Tween-80): 151 % of control | T/C (dose: 0.5 mg/kg/injection, schedule: Q01DX009 (oral), vehicle: Klucel (hydroxypropylcellulose) (HPC)): 100 % of control | T/C (dose: 0.5 mg/kg/injection, schedule: Q03HX008 (ip), vehicle: Klucel (hydroxypropylcellulose) (HPC)): 100 % of control | T/C (dose: 0.5 mg/kg/injection, schedule: Q03HX016 (ip), vehicle: Klucel (hydroxypropylcellulose) (HPC)): 100 % of control | T/C (dose: 0.5 mg/kg/injection, schedule: Q03HX024 (ip), vehicle: Klucel (hydroxypropylcellulose) (HPC)): 90 % of control | T/C (dose: 1.0 mg/kg/injection, schedule: Q01DX009 (ip), vehicle: Klucel (hydroxypropylcellulose) (HPC)): 100 % of control | T/C (dose: 1.0 mg/kg/injection, schedule: Q01DX009 (ip), vehicle: distilled water + alcohol): 110 % of control | T/C (dose: 1.0 mg/kg/injection, schedule: Q01DX009 (ip), vehicle: saline with Tween-80): 101 % of control and 109 % of control | T/C (dose: 1.0 mg/kg/injection, schedule: Q01DX009 (oral), vehicle: Klucel (hydroxypropylcellulose) (HPC)): 100 % of control | T/C (dose: 1.0 mg/kg/injection, schedule: Q03HX008 (ip), vehicle: Klucel (hydroxypropylcellulose) (HPC)): 100 % of control | T/C (dose: 1.0 mg/kg/injection, schedule: Q03HX016 (ip), vehicle: Klucel (hydroxypropylcellulose) (HPC)): 100 % of control | T/C (dose: 1.0 mg/kg/injection, schedule: Q03HX024 (ip), vehicle: Klucel (hydroxypropylcellulose) (HPC)): 95 % of control | T/C (dose: 2.0 mg/kg/injection, schedule: Q01DX001 (ip), vehicle: Klucel (hydroxypropylcellulose) (HPC)): 100 % of control | T/C (dose: 2.0 mg/kg/injection, schedule: Q01DX009 (ip), vehicle: Klucel (hydroxypropylcellulose) (HPC)): 151 % of control | T/C (dose: 2.0 mg/kg/injection, schedule: Q01DX009 (ip), vehicle: saline with Tween-80): 89 % of control | T/C (dose: 2.0 mg/kg/injection, schedule: Q01DX009 (oral), vehicle: Klucel (hydroxypropylcellulose) (HPC)): 100 % of control | T/C (dose: 2.0 mg/kg/injection, schedule: Q03HX008 (ip), vehicle: Klucel (hydroxypropylcellulose) (HPC)): 100 % of control | T/C (dose: 2.0 mg/kg/injection, schedule: Q03HX016 (ip), vehicle: Klucel (hydroxypropylcellulose) (HPC)): 100 % of control | T/C (dose: 2.0 mg/kg/injection, schedule: Q03HX024 (ip), vehicle: Klucel (hydroxypropylcellulose) (HPC)): 95 % of control | T/C (dose: 2.0 mg/kg/injection, schedule: Q04DX003 (ip), vehicle: Klucel (hydroxypropylcellulose) (HPC)): 100 % of control | T/C (dose: 2.0 mg/kg/injection, schedule: Q08DX002 (ip), vehicle: Klucel (hydroxypropylcellulose) (HPC)): 100 % of control | T/C (dose: 4.0 mg/kg/injection, schedule: Q01DX001 (ip), vehicle: Klucel (hydroxypropylcellulose) (HPC)): 100 % of control | T/C (dose: 4.0 mg/kg/injection, schedule: Q01DX009 (oral), vehicle: Klucel (hydroxypropylcellulose) (HPC)): 100 % of control | T/C (dose: 4.0 mg/kg/injection, schedule: Q04DX003 (ip), vehicle: Klucel (hydroxypropylcellulose) (HPC)): 100 % of control | T/C (dose: 4.0 mg/kg/injection, schedule: Q08DX002 (ip), vehicle: Klucel (hydroxypropylcellulose) (HPC)): 100 % of control | T/C (dose: 8.0 mg/kg/injection, schedule: Q01DX001 (ip), vehicle: Klucel (hydroxypropylcellulose) (HPC)): 100 % of control | T/C (dose: 8.0 mg/kg/injection, schedule: Q04DX003 (ip), vehicle: Klucel (hydroxypropylcellulose) (HPC)): 100 % of control | T/C (dose: 8.0 mg/kg/injection, schedule: Q08DX002 (ip), vehicle: Klucel (hydroxypropylcellulose) (HPC)): 100 % of control | T/C (dose: 16.0 mg/kg/injection, schedule: Q01DX001 (ip), vehicle: Klucel (hydroxypropylcellulose) (HPC)): 100 % of control | T/C (dose: 16.0 mg/kg/injection, schedule: Q01DX001 (oral), vehicle: Klucel (hydroxypropylcellulose) (HPC)): 100 % of control | T/C (dose: 16.0 mg/kg/injection, schedule: Q04DX003 (ip), vehicle: Klucel (hydroxypropylcellulose) (HPC)): 100 % of control | T/C (dose: 16.0 mg/kg/injection, schedule: Q08DX002 (ip), vehicle: Klucel (hydroxypropylcellulose) (HPC)): 104 % of control | T/C (dose: 32.0 mg/kg/injection, schedule: Q01DX001 (oral), vehicle: Klucel (hydroxypropylcellulose) (HPC)): 100 % of control | T/C (dose: 64.0 mg/kg/injection, schedule: Q01DX001 (oral), vehicle: Klucel (hydroxypropylcellulose) (HPC)): 100 % of control | T/C (dose: 128.0 mg/kg/injection, schedule: Q01DX001 (oral), vehicle: Klucel (hydroxypropylcellulose) (HPC)): 100 % of control
